Experimental findings from US7759496B2, “Imidazole derivatives having affinity for alpha 2 receptors activity” (Orion Corporation, priority 2002, dated 2010) are described below.

Structures are written as SMILES. Read-outs that look alike come from different tables or passages of the source.

The nature of series [1]: Chemical stability in phosphate buffer at 37° C. The format is physicochemical. The protocol: An appropriate amount of the test compound (initial concentrations were 0.1-0.4 mM) was dissolved in pre-heated phosphate buffer (0.16 M, μ=0.5, pH 7.4 or pH 5.0). The solution was placed in a thermostated water bath at 37° C. and aliquots were taken at suitable intervals and analyzed by HPLC to determine the degradation rate of the compound. The pseudo-first-order half-life (t1/2) was calculated from the linear slopes of semi-logarithmic plots of remaining compound over time.

For another series, the system named is serum esterases. Description: Enzymatic hydrolysis in 80% human serum. The format is in vitro ADME. To be noted: pH 7.4, 37° C., read-out: t1/2 (min) 80% human serum (pH 7.4). The method, then: To exert the pharmacological effect in the body, a prodrug should be enzymatically degraded to the parent drug. Therefore, the susceptibility of the compounds to serum esterases was evaluated.
An appropriate amount of the test compound was dissolved in one volume (e.g. 1 ml) of phosphate buffer (0.16 M, μ=0.5, pH 7.4) at 37° C. Four volumes (e.g. 4 ml) of pre-heated human serum were added and the solutions were mixed in a water bath at 37° C. (initial concentrations were 0.2-0.5 mM). At suitable intervals, 300 μl aliquots were withdrawn and deproteinated with 600 μl of acetonitrile. After mixing and centrifugation, 600 μl of the supernatant was evaporated to dryness under a stream of air at 40° C. The residue was re-dissolved in 300 μl of the mobile phase and analyzed by HPLC. The pseudo-first-order half-life (t1/2) was calculated from the linear slopes of semi-logarithmic plots of remaining compound over time. Also the formation of the parent drug was determined.

The test system of another series is normotensive rabbits. The series is described as follows: IOP study in rabbits. It is filed as in vivo, rabbit. The following applies: 2.5 μg, mean ± SE, n = 5-6. The protocol:
The IOP lowering effect of the prodrug was also compared to the effect of MPV-2426.
To perform the IOP test, a rabbit was placed in a plastic restraining box located in a quiet room. A single drop (25 μl) of the test solution was instilled unilaterally into its left eye on the upper corneoscleral limbus. During installation, the upper eyelid was pulled slightly away from the globe. IOP was measured using a BioRad (Cambridge, Mass.) Digilab Modular One Pneumatonometer. Before each measurement one or two drops of oxybuprocaine (0.06%) were applied to the cornea before tonometry to eliminate discomfort. The upper and lower eyelids were then gently retracted, and the applanation sensor was brought into contact with the center of the cornea. For each
determination at least two readings were taken from each treated (ipsilateral) and untreated (contralateral) eye, and the mean of these readings was used. IOP of the rabbits was measured at 2, 1, and 0 h before and at 0.5, 1, 2, 3, 4 and 5 h after eyedrop administration. IOP at the time of eyedrop administration (0 h) was used as a baseline value. All studies were set up using a masked and randomized crossover design. At least 72 h washout time was allowed for each rabbit between each dosing. Results

[2] abbreviates: phosphate buffer pH 5.0, 37° C., read-out: t1/2 (d) phosphate buffer pH 5.0 (converted).
[3] abbreviates: phosphate buffer pH 7.4, 37° C., read-out: t1/2 (d) phosphate buffer pH 7.4 (converted).

Turning to `CCCC(=O)Oc1ccc2c(c1)C(Cc1c[nH]cn1)CC2.Cl` (centres unmarked) [example 2, 4-(6-Butyryloxyindan-1-ylmethyl)-1H-imidazol-1-ium chloride], the half-life is 49 days in series [1] (setting [2]), 2.5 days in series [1] (setting [3]) and 0.2 min in the series with serum esterases.

`CC(=O)Oc1ccc2c(c1)C(Cc1c[nH]cn1)CC2.Cl` (centres unmarked) [example 1, 4-(6-Acetoxyindan-1-ylmethyl)-1H-imidazol-1-ium chloride]: the results for the half-life (in series [1] (setting [2]); in series [1] (setting [3]); in the series on serum esterases) were 23 days, 1.1 days and 0.18 min, respectively.

As for `Cl.Oc1ccc2c(c1)C(Cc1c[nH]cn1)CC2` (centres unmarked) [MPV-2426, 4-(6-hydroxyindan-1-ylmethyl)-1H-imidazol-1-ium chloride, reference compound], the “Intraocular pressure (IOP) change” value was 0.0 ± 0.0 mmHg in the series on normotensive rabbits (treated eye, 0 h); 0.1 ± 1.0 mmHg in the series with normotensive rabbits (treated eye, 0.5 h); −2.6 ± 1.1 mmHg with normotensive rabbits (treated eye, 1 h); −3.0 ± 0.7 mmHg in the series with normotensive rabbits (treated eye, 2 h); −2.4 ± 0.5 mmHg with normotensive rabbits (treated eye, 3 h); −0.4 ± 1.2 mmHg in the series on normotensive rabbits (treated eye, 4 h). The “Intraocular pressure (IOP) change” value in the series on normotensive rabbits (treated eye, 5 h) is −0.1 ± 0.8 mmHg; in the series with normotensive rabbits (untreated eye, 0 h), 0.0 ± 0.0 mmHg; in the series on normotensive rabbits (untreated eye, 0.5 h), 0.3 ± 1.0 mmHg; in the series on normotensive rabbits (untreated eye, 1 h) it was −1.3 ± 0.7 mmHg; in the series with normotensive rabbits (untreated eye, 2 h), −1.6 ± 0.9 mmHg; in the series with normotensive rabbits (untreated eye, 3 h), −1.7 ± 0.6 mmHg. Further, the “Intraocular pressure (IOP) change” value in the series on normotensive rabbits (untreated eye, 4 h) was 0.4 ± 1.1 mmHg; in the series on normotensive rabbits (untreated eye, 5 h) it was 0.4 ± 1.1 mmHg.
